In PubChem BioAssay (NCI):
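GI50 marks 50% less growth. TGI: concentration producing complete growth inhibition.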

Experiments:
Assay in all cases: growth of human tumour cells (NCI), 384-well format
786-0 renal = tested on: 786-0 renal
A498 renal = tested on: A498 renal
A549 NSCLC = tested on: A549 NSCLC
ACHN renal = tested on: ACHN renal
BT-549 breast = tested on: BT-549 breast
CAKI-1 renal = tested on: CAKI-1 renal
CCRF-CEM leukemia = tested on: CCRF-CEM leukemia
DU-145 prostate = tested on: DU-145 prostate
EKVX NSCLC = tested on: EKVX NSCLC
HCT-116 colon = tested on: HCT-116 colon
HCT-15 colon = tested on: HCT-15 colon
HL-60(TB) leukemia = tested on: HL-60(TB) leukemia
HOP-62 NSCLC = tested on: HOP-62 NSCLC
HOP-92 NSCLC = tested on: HOP-92 NSCLC
HS 578T breast = tested on: HS 578T breast
HT29 colon = tested on: HT29 colon
IGROV1 ovarian = tested on: IGROV1 ovarian
K-562 leukemia = tested on: K-562 leukemia
KM12 colon = tested on: KM12 colon
LOX IMVI melanoma = tested on: LOX IMVI melanoma
M14 melanoma = tested on: M14 melanoma
MALME-3M melanoma = tested on: MALME-3M melanoma
MCF7 breast = tested on: MCF7 breast
MDA-MB-231 breast = tested on: MDA-MB-231 breast
MDA-MB-435 melanoma = tested on: MDA-MB-435 melanoma
MDA-MB-468 breast = tested on: MDA-MB-468 breast
MOLT-4 leukemia = tested on: MOLT-4 leukemia
NCI-H226 lung = tested on: NCI-H226 lung
NCI-H23 lung = tested on: NCI-H23 lung
NCI-H322M lung = tested on: NCI-H322M lung
NCI-H522 lung = tested on: NCI-H522 lung
NCI/ADR-RES ovarian = tested on: NCI/ADR-RES ovarian
OVCAR-3 ovarian = tested on: OVCAR-3 ovarian
OVCAR-4 ovarian = tested on: OVCAR-4 ovarian
OVCAR-5 ovarian = tested on: OVCAR-5 ovarian
OVCAR-8 ovarian = tested on: OVCAR-8 ovarian
PC-3 prostate = tested on: PC-3 prostate
RPMI-8226 leukemia = tested on: RPMI-8226 leukemia
RXF 393 renal = tested on: RXF 393 renal
SF-268 CNS = tested on: SF-268 CNS
SF-295 CNS = tested on: SF-295 CNS
SF-539 CNS = tested on: SF-539 CNS
SK-MEL-2 melanoma = tested on: SK-MEL-2 melanoma
SK-MEL-28 melanoma = tested on: SK-MEL-28 melanoma
SK-OV-3 ovarian = tested on: SK-OV-3 ovarian
SN12C renal = tested on: SN12C renal
SNB-19 CNS = tested on: SNB-19 CNS
SNB-75 CNS = tested on: SNB-75 CNS
SW-620 colon = tested on: SW-620 colon
T-47D breast = tested on: T-47D breast
TK-10 renal = tested on: TK-10 renal
U251 glioblastoma = tested on: U251 glioblastoma
UACC-257 melanoma = tested on: UACC-257 melanoma
UACC-62 melanoma = tested on: UACC-62 melanoma
UO-31 renal = tested on: UO-31 renal

For `O=P1(NCCCl)OCCCN1CCCl` (stereo not given), which GI50 ([…]-0 renal) is on record?
The GI50 was over 100 µM.

And the TGI (786-0 renal)?
Its TGI is over 100 µM.

And the GI50 (A498 renal)?
The GI50 was over 100 µM.

What about the TGI (A498 renal) of the same compound?
The TGI was over 100 µM.

And the GI50 (A549 NSCLC)?
Its GI50 is over 100 µM.

And the TGI (A549 NSCLC)?
The TGI was over 100 µM.

What about the GI50 (ACHN renal) of the same compound?
The GI50 was over 100 µM.

What about the TGI (ACHN renal) of the same compound?
The TGI was over 100 µM.

And the GI50 (BT-549 breast)?
Its GI50 is over 100 µM.

And the TGI (BT-549 breast)?
The TGI was over 100 µM.

What about the GI50 (CAKI-1 renal) of the same compound?
The GI50 was over 100 µM.

What about the TGI (CAKI-1 renal) of the same compound?
Its TGI is over 100 µM.

What about the GI50 (CCRF-CEM leukemia) of the same compound?
The GI50 was over 100 µM.

What about the TGI (CCRF-CEM leukemia) of the same compound?
The TGI was over 100 µM.

And the GI50 (DU-145 prostate)?
Its GI50 is over 100 µM.

What about the TGI (DU-145 prostate) of the same compound?
Its TGI is over 100 µM.

What about the GI50 (EKVX NSCLC) of the same compound?
The GI50 was over 100 µM.

And the TGI (EKVX NSCLC)?
Its TGI is over 100 µM.

What about the GI50 (HCT-116 colon) of the same compound?
The GI50 was over 100 µM.

And the TGI (HCT-116 colon)?
Its TGI is over 100 µM.

And the GI50 (HCT-15 colon)?
Its GI50 is over 100 µM.

What about the TGI (HCT-15 colon) of the same compound?
Its TGI is over 100 µM.

And the GI50 (HL-60(TB) leukemia)?
The GI50 was over 100 µM.

What about the TGI (HL-60(TB) leukemia) of the same compound?
Its TGI is over 100 µM.

What about the GI50 (HOP-62 NSCLC) of the same compound?
Its GI50 is over 100 µM.

What about the TGI (HOP-62 NSCLC) of the same compound?
The TGI was over 100 µM.

What about the GI50 (HOP-92 NSCLC) of the same compound?
The GI50 was over 100 µM.

What about the TGI (HOP-92 NSCLC) of the same compound?
Its TGI is over 100 µM.

And the GI50 (HS 578T breast)?
The GI50 was over 100 µM.

What about the TGI (HS 578T breast) of the same compound?
Its TGI is over 100 µM.

And the GI50 (HT29 colon)?
The GI50 was over 100 µM.

What about the TGI (HT29 colon) of the same compound?
The TGI was over 100 µM.

And the GI50 (IGROV1 ovarian)?
The GI50 was over 100 µM.

And the TGI (IGROV1 ovarian)?
Its TGI is over 100 µM.

And the GI50 (K-562 leukemia)?
The GI50 was over 100 µM.

And the TGI (K-562 leukemia)?
Its TGI is over 100 µM.

And the GI50 (KM12 colon)?
The GI50 was over 100 µM.

And the TGI (KM12 colon)?
The TGI was over 100 µM.

And the GI50 (LOX IMVI melanoma)?
Its GI50 is over 100 µM.

And the TGI (LOX IMVI melanoma)?
The TGI was over 100 µM.

And the GI50 (M14 melanoma)?
The GI50 was over 100 µM.

And the TGI (M14 melanoma)?
The TGI was over 100 µM.

What about the GI50 (MALME-3M melanoma) of the same compound?
Its GI50 is over 100 µM.

What about the TGI (MALME-3M melanoma) of the same compound?
The TGI was over 100 µM.

And the GI50 (MCF7 breast)?
Its GI50 is over 100 µM.

What about the TGI (MCF7 breast) of the same compound?
The TGI was over 100 µM.

What about the GI50 (MDA-MB-231 breast) of the same compound?
The GI50 was over 100 µM.

What about the TGI (MDA-MB-231 breast) of the same compound?
The TGI was over 100 µM.

What about the GI50 (MDA-MB-435 melanoma) of the same compound?
The GI50 was over 100 µM.

And the TGI (MDA-MB-435 melanoma)?
Its TGI is over 100 µM.

And the GI50 (MDA-MB-468 breast)?
The GI50 was over 100 µM.

What about the TGI (MDA-MB-468 breast) of the same compound?
Its TGI is over 100 µM.

And the GI50 (MOLT-4 leukemia)?
The GI50 was over 100 µM.

What about the TGI (MOLT-4 leukemia) of the same compound?
Its TGI is over 100 µM.

And the GI50 (NCI-H226 lung)?
Its GI50 is over 100 µM.

What about the TGI (NCI-H226 lung) of the same compound?
Its TGI is over 100 µM.

And the GI50 (NCI-H23 lung)?
The GI50 was over 100 µM.

And the TGI (NCI-H23 lung)?
Its TGI is over 100 µM.

What about the GI50 (NCI-H322M lung) of the same compound?
The GI50 was over 100 µM.

And the TGI (NCI-H322M lung)?
The TGI was over 100 µM.

What about the GI50 (NCI-H522 lung) of the same compound?
The GI50 was over 100 µM.

What about the TGI (NCI-H522 lung) of the same compound?
Its TGI is over 100 µM.

And the GI50 (NCI/ADR-RES ovarian)?
Its GI50 is over 100 µM.

And the TGI (NCI/ADR-RES ovarian)?
The TGI was over 100 µM.

What about the GI50 (OVCAR-3 ovarian) of the same compound?
Its GI50 is over 100 µM.

And the TGI (OVCAR-3 ovarian)?
The TGI was over 100 µM.

And the GI50 (OVCAR-4 ovarian)?
The GI50 was over 100 µM.

What about the TGI (OVCAR-4 ovarian) of the same compound?
Its TGI is over 100 µM.

And the GI50 (OVCAR-5 ovarian)?
The GI50 was over 100 µM.

What about the TGI (OVCAR-5 ovarian) of the same compound?
Its TGI is over 100 µM.

What about the GI50 (OVCAR-8 ovarian) of the same compound?
Its GI50 is over 100 µM.

What about the TGI (OVCAR-8 ovarian) of the same compound?
The TGI was over 100 µM.

And the GI50 (PC-3 prostate)?
Its GI50 is over 100 µM.

And the TGI (PC-3 prostate)?
Its TGI is over 100 µM.

What about the GI50 (RPMI-8226 leukemia) of the same compound?
Its GI50 is over 100 µM.

What about the TGI (RPMI-8226 leukemia) of the same compound?
Its TGI is over 100 µM.

And the GI50 (RXF 393 renal)?
The GI50 was over 100 µM.

And the TGI (RXF 393 renal)?
The TGI was over 100 µM.

What about the GI50 (SF-268 CNS) of the same compound?
The GI50 was over 100 µM.

What about the TGI (SF-268 CNS) of the same compound?
Its TGI is over 100 µM.

What about the GI50 (SF-295 CNS) of the same compound?
The GI50 was over 100 µM.

What about the TGI (SF-295 CNS) of the same compound?
Its TGI is over 100 µM.

And the GI50 (SF-539 CNS)?
Its GI50 is over 100 µM.

And the TGI (SF-539 CNS)?
Its TGI is over 100 µM.

And the GI50 (SK-MEL-2 melanoma)?
The GI50 was over 100 µM.

And the TGI (SK-MEL-2 melanoma)?
Its TGI is over 100 µM.

And the GI50 (SK-MEL-28 melanoma)?
Its GI50 is over 100 µM.

What about the TGI (SK-MEL-28 melanoma) of the same compound?
The TGI was over 100 µM.

And the GI50 (SK-OV-3 ovarian)?
The GI50 was over 100 µM.

What about the TGI (SK-OV-3 ovarian) of the same compound?
Its TGI is over 100 µM.

And the GI50 (SN12C renal)?
Its GI50 is over 100 µM.

What about the TGI (SN12C renal) of the same compound?
The TGI was over 100 µM.

And the GI50 (SNB-19 CNS)?
The GI50 was over 100 µM.

What about the TGI (SNB-19 CNS) of the same compound?
The TGI was over 100 µM.

What about the GI50 (SNB-75 CNS) of the same compound?
Its GI50 is over 100 µM.

And the TGI (SNB-75 CNS)?
Its TGI is over 100 µM.

What about the GI50 (SW-620 colon) of the same compound?
Its GI50 is over 100 µM.

And the TGI (SW-620 colon)?
Its TGI is over 100 µM.

What about the GI50 (T-47D breast) of the same compound?
The GI50 was over 100 µM.

And the TGI (T-47D breast)?
The TGI was over 100 µM.

What about the GI50 (TK-10 renal) of the same compound?
The GI50 was over 100 µM.

What about the TGI (TK-10 renal) of the same compound?
Its TGI is over 100 µM.

What about the GI50 (U251 glioblastoma) of the same compound?
The GI50 was over 100 µM.

And the TGI (U251 glioblastoma)?
Its TGI is over 100 µM.

What about the GI50 (UACC-257 melanoma) of the same compound?
Its GI50 is over 100 µM.

And the TGI (UACC-257 melanoma)?
Its TGI is over 100 µM.

What about the GI50 (UACC-62 melanoma) of the same compound?
Its GI50 is over 100 µM.

And the TGI (UACC-62 melanoma)?
Its TGI is over 100 µM.

What about the GI50 (UO-31 renal) of the same compound?
The GI50 was over 100 µM.

And the TGI (UO-31 renal)?
Its TGI is over 100 µM.
